# Test: Inhibition of IL-6 production in MALT-1 dependent human OCILY3 cells incubated for 48 hrs by AlphaLISA immunoassay
# Type: functional, cell-based
# Conditions: OCI-Ly3, 48 h
row,Compound,EC50 [nM]
1,CO[C@H](c1c(Nc2ccc([C@H](N(C)C(=O)C3CCS(=O)(=O)CC3)C(F)(F)F)cc2)cnc2sc(C)nc12)C(F)F,140
2,CO[C@@H](c1c(Nc2ccc([C@H](N(C)C(=O)C3CCS(=O)(=O)CC3)C(F)(F)F)cc2)cnc2sc(C)nc12)C(F)F,340
3,CO[C@H](c1c(Nc2ccc([C@H](N(C)C(=O)C3CCN(C(C)=O)CC3)C(F)(F)F)cc2)cnc2sc(C)nc12)C(F)F,1150
4,CO[C@H](c1c(Nc2ccc([C@@H](C(F)F)N(C)C(=O)C3CCN(C(=O)CO)CC3)cc2)cnc2sc(C)nc12)C(F)(F)F,270
5,CO[C@@H](C)c1c(Nc2ccc([C@H](N(C)C(=O)C3CCN(C(=O)CCO)CC3)C(F)(F)F)cc2)cnc2sc(C)nc12,380
6,CO[C@H](c1c(Nc2ccc([C@@H](C(F)F)N(C)C(=O)C3CCN(C(=O)CO)CC3)cc2)cnc2sc(C)nc12)C(F)F,440

# The remaining molecules from weak to strong by EC50, led by results:
row,EC50 [nM],Compound
1,410,CO[C@@H](C)c1c(Nc2ccc([C@H](N(C)C(=O)C3CCN(C(=O)[C@H](O)CO)CC3)C(F)(F)F)cc2)cnc2sc(C)nc12
2,300,CO[C@@H](C)c1c(Nc2ccc([C@H](N(C)C(=O)C3CCS(=O)(=O)CC3)C(F)(F)F)cc2)cnc2sc(C(F)F)nc12
3,200,CO[C@H](C)c1c(Nc2ccc([C@@H](C(F)F)N(C)C(=O)C3CCS(=O)(=O)CC3)cc2)cnc2sc(C)nc12
4,200,CO[C@@H](C)c1c(Nc2ccc([C@H](N(C)C(=O)C3CCS(=O)(=O)CC3)C(F)(F)F)cc2)cnc2sc(C)nc12
5,70,CO[C@H](C)c1c(Nc2ccc([C@H](N(C)C(=O)C3CCS(=O)(=O)CC3)C(F)(F)F)cc2)cnc2sc(C)nc12
6,40,"Cc1nc2c([C@H](C)C(F)(F)F)c(Nc3ccc([C@H](N(C)C(=O)C4CCS(=O)(=O)CC4)C(F)(F)F)cc3)cnc2s1 (single isomer, unassigned)"
